Where two headings read alike, the source gives them in different places.
Key:
[1] = test system: HCV sub-genomic replicon in GS4.3 cells (HuH-7 hepatoma cells); assay: Quantitation by ELISA of Neomycin phosphotransferase II (NPTII) in the HCV sub-genomic replicon, GS4.3; format: cell-based, hepatitis C virus
Procedure: The HCV sub-genomic replicon (1377/NS3-3′, accession No. AJ242652), stably maintained in HuH-7 hepatoma cells, was created by Lohmann et al. Science 285: 110-113 (1999). The replicon-containing cell culture, designated GS4.3, was obtained from Dr. Christoph Seeger of the Institute for Cancer Research, Fox Chase Cancer Center, Philadelphia, Pa.
GS4.3 cells were maintained at 37° C., 5% CO2, in DMEM (Gibco 11965-092) supplemented with L-glutamine 200 mM (100×) (Gibco25030-081), non-essential amino acids (NEAA) (Biowhittaker 13-114E), heat-inactivated (HI) Fetal Bovine Serum (FBS) (Hyclone SH3007.03) and 750 μg/ml geneticin (G418) (Gibco 10131-035). Cells were sub-divided 1:3 or 4 every 2-3 days.
24 h prior to the assay, GS4.3 cells were collected, counted, and plated in 96-well plates (Costar 3585) at 7500 cells/well in 100 μl standard maintenance medium (above) and incubated in the conditions above. To initiate the assay, culture medium was removed, cells were washed once with PBS (Gibco 10010-023) and 90 μl Assay Medium (DMEM, L-glutamine, NEAA, 10% HI FBS, no G418) was added. Inhibitors were made as a 10× stock in Assay Medium, (3-fold dilutions from 10 μM to 56 pM final concentration, final DMSO concentration 1%), 10 μl were added to duplicate wells, plates were rocked to mix, and incubated as above for 72 h.
An NPTII Elisa kit was obtained from AGDIA, Inc. (Compound direct ELISA test system for Neomycin Phosphotransferase II, PSP 73000/4800). Manufacturer's instructions were followed, with some modifications. 10×PEB-1 lysis buffer was made up to include 500 μM PMSF (Sigma P7626, 50 mM stock in isopropanol). After 72 h incubation, cells were washed once with PBS and 150 μl PEB-1 with PMSF was added per well. Plates were agitated vigorously for 15 minutes, room temperature, then frozen at −70° C. Plates were thawed, lysates were mixed thoroughly, and 100 μl were applied to an NPTII Elisa plate. A standard curve was made. Lysate from DMSO-treated control cells was pooled, serially diluted with PEB-1 with PMSF, and applied to duplicate wells of the ELISA plate, in a range of initial lysate amount of 150 ul-2.5 ul. In addition, 100 μl buffer alone was applied in duplicate as a blank. Plates were sealed and gently agitated at room temperature for 2 h. Following capture incubation, the plates were washed 5×300 μl with PBS-T (0.5% Tween-20, PBS-T was supplied in the ELISA kit). For detection, a 1× dilution of enzyme conjugate diluent MRS-2 (5×) was made in PBS-T, into which 1:100 dilutions of enzyme conjugates A and B were added, as per instructions. Plates were resealed, and incubated with agitation, covered, room temperature, for 2 h. The washing was then repeated and 100 μl of room temperature TMB substrate was added. After approximately 30 minutes incubation (room temperature, agitation, covered), the reaction was stopped with 50 μl 3M sulfuric acid. Plates were read at 450 nm on a Molecular Devices Versamax plate reader.
Inhibitor effect was expressed as a percentage of DMSO-treated control signal, and inhibition curves were calculated using a 4-parameter equation: y=A+((B−A)/(1+((C/x)^D))), where C is half-maximal activity or EC50.

[2] = target: T1, full-length NS3/NS4A-2 (HCV NS3 protease) (Hepatitis C virus genotype 1a, UniProt P27958); assay: NS3-NS4 protease assay / NS3 inhibition assay (RETS1 substrate, fluorescence kinetic read); format: biochemical
T1 construct: Recombinant E. coli or Baculovirus full-length NS3 was diluted to 3.33 μM with assay buffer; made in house; host or cells: E. coli or baculovirus (BV) expression system
T1 sequence (P27958 1027-1657): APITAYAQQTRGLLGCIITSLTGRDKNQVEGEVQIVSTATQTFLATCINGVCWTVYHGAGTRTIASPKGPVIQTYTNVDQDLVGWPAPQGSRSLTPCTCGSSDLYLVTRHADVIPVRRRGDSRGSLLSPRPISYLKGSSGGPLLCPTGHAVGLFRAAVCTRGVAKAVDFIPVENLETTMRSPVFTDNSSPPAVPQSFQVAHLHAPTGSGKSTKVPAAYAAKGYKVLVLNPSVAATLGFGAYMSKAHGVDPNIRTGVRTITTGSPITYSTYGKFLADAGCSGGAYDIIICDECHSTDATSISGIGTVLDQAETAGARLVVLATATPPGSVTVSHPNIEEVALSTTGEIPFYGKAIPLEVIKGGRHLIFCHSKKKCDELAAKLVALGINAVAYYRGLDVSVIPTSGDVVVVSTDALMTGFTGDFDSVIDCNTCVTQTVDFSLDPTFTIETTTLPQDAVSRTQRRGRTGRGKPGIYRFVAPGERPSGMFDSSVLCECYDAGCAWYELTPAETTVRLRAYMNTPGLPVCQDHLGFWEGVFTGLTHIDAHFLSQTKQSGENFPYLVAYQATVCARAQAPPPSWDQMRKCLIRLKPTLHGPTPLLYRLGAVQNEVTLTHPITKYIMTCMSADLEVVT
Procedure, shortened: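 Full-length NS3 from E. coli (2 nM in assay) or baculovirus (3 nM) was precomplexed with excess NS4A-2 peptide, then preincubated 10 min at room temperature with serially diluted compounds starting at 50 microM. Reaction was started with RETS1 substrate at 8 μM before addition and read kinetically for 30 min (ex 335/em 495 nm). Four-parameter IC50s were converted to Ki by Cheng-Prusoff using Km 2.03 μM (E. coli) or 1.74 μM (BV).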

[3] = Hepatitis C virus, Huh-7, GS4.3 cells, 72 h incubation, NPTII ELISA, read-out: Replicon EC50
[4] = recombinant E. coli or Baculovirus full-length NS3 with NS4A-2, read-out: NS3-NS4 IC50

| Compound | EC50 [1, 3] | IC50 [2, 4] | IC50 [2] | EC50 ([1]; Table 26, read-out: EC50) |
| --- | --- | --- | --- | --- |
| CCCNC(=O)[C@@]12C[C@H]1/C=C\CCCCC[C@H](NC(=O)OC(C)(C)C)C(=O)N1C[C@H](OC(=O)N3Cc4ccccc4C3)C[C@H]1C(=O)N2 [Compound 600] | < 1000 nM | < 100 nM | – | – |
| O=C(N[C@H]1CCCCC/C=C\[C@@H]2C[C@@]2(C(=O)NS(=O)(=O)N2CCC(F)(F)C2)NC(=O)[C@@H]2C[C@@H](OC(=O)N3Cc4cccc(F)c4C3)CN2C1=O)OC1CCCC1 [Compound 225] | < 100 nM | < 100 nM | – | – |
| O=C(N[C@H]1CCCCC/C=C\[C@@H]2C[C@@]2(C(=O)NS(=O)(=O)c2cc(Cl)sc2Cl)NC(=O)[C@@H]2C[C@@H](OC(=O)N3Cc4cccc(F)c4C3)CN2C1=O)OC1CCCC1 [Compound 173] | < 100 nM | < 100 nM | – | – |
| C[C@@H](NC(=O)[C@@]12C[C@H]1/C=C\CCCCC[C@H](NC(=O)OC(C)(C)C)C(=O)N1C[C@H](OC(=O)N3Cc4cccc(F)c4C3)C[C@H]1C(=O)N2)c1ccc(F)cn1 [Compound 629] | < 10000 nM | < 1000 nM | – | – |
| CC(CO)(CO)C(=O)N[C@H]1CCCCC/C=C\[C@@H]2C[C@@]2(C(=O)NS(=O)(=O)C2CC2)NC(=O)[C@@H]2C[C@@H](OC(=O)N3Cc4cccc(F)c4C3)CN2C1=O [Compound 253] | < 10000 nM | < 100 nM | – | – |
| CC(C)(C)OC(=O)N[C@H]1CCC(F)(F)CC/C=C\[C@@H]2C[C@@]2(C(=O)O)NC(=O)[C@@H]2C[C@@H](OC(=O)N3Cc4cccc(F)c4C3)CN2C1=O [Compound 1001] | < 10000 nM | < 100 nM | – | – |
| CC(C)(C)OC(=O)N[C@H]1CCCCC/C=C\[C@@H]2C[C@@]2(C(=O)NCC(O)(C(F)(F)F)C(F)(F)F)NC(=O)[C@@H]2C[C@@H](OC(=O)N3Cc4cccc(F)c4C3)CN2C1=O [Compound 613] | < 1000 nM | < 1000 nM | – | – |
| CCC(C)(C)Nc1c(N[C@H]2CCCCC/C=C\[C@@H]3C[C@@]3(C(=O)NS(=O)(=O)C3CC3)NC(=O)[C@@H]3C[C@@H](OC(=O)N4Cc5cccc(F)c5C4)CN3C2=O)c(=O)c1=O [Compound 194] | < 10000 nM | < 100 nM | – | – |
| Cc1ccccc1S(=O)(=O)NC(=O)[C@@]12C[C@H]1/C=C\CCCCC[C@H](N)C(=O)N1C[C@H](OC(=O)N3Cc4cccc(F)c4C3)C[C@H]1C(=O)N2 [Compound 159] | < 1000 nM | – | < 100 nM | – |
| CC(C)(C)OC(=O)N[C@H]1CCNCC/C=C\[C@@H]2C[C@@]2(C(=O)NS(=O)(=O)C2CC2)NC(=O)[C@@H]2C[C@@H](OC(=O)N3Cc4cccc(F)c4C3)CN2C1=O [Compound 1031] | < 1000 nM | < 100 nM | – | – |
| CC(C)(C)OC(=O)N[C@H]1CCCCC/C=C\[C@@H]2C[C@@]2(C(=O)NS(=O)(=O)c2ccc(Cl)s2)NC(=O)[C@@H]2C[C@@H](OC(=O)N3Cc4cccc(Cl)c4C3)CN2C1=O [Compound 164] | < 100 nM | < 100 nM | – | – |
| CC(C)(C)OC(=O)N[C@H]1CCCCC/C=C\[C@@H]2C[C@@]2(C(=O)O)NC(=O)[C@@H]2C[C@@H](OC(=O)N3Cc4cccc(Cl)c4C3)CN2C1=O [Compound 113] | < 1000 nM | < 100 nM | – | – |
| N[C@H]1CCC(F)(F)CC/C=C\[C@@H]2C[C@@]2(C(=O)NS(=O)(=O)C2CC2)NC(=O)[C@@H]2C[C@@H](OC(=O)N3Cc4cccc(F)c4C3)CN2C1=O [Compound 1003] | < 1000 nM | < 100 nM | – | – |
| CC(C)(C)OC(=O)N[C@H]1CCCCC/C=C\[C@@H]2C[C@@]2(C(=O)NCC2(O)CC2)NC(=O)[C@@H]2C[C@@H](OC(=O)N3Cc4cccc(F)c4C3)CN2C1=O [Compound 619] | < 1000 nM | < 100 nM | – | – |
| O=C1N[C@]2(C(=O)NS(=O)(=O)C3CC3)C[C@H]2/C=C\CCCCC[C@H](Nc2nc(-c3ccccc3)cs2)C(=O)N2C[C@H](OC(=O)N3Cc4cccc(Cl)c4C3)C[C@@H]12 [Compound 929] | < 100 nM | < 100 nM | – | – |
| O=C1N[C@]2(C(=O)NS(=O)(=O)C3CC3)C[C@H]2/C=C\CCCCC[C@H](NCCCC(F)(F)F)C(=O)N2C[C@H](OC(=O)N3Cc4cccc(F)c4C3)C[C@@H]12 [Compound 902] | < 100 nM | < 100 nM | – | – |
| CC(=O)N[C@H](C(=O)N[C@H]1CCCCC/C=C\[C@@H]2C[C@@]2(C(=O)NS(=O)(=O)C2CC2)NC(=O)[C@@H]2C[C@@H](OC(=O)N3Cc4cccc(Cl)c4C3)CN2C1=O)C1CCCCC1 [Compound 262] | < 1000 nM | < 100 nM | – | – |
| O=C1N[C@]2(C(=O)NS(=O)(=O)C3CC3)C[C@H]2/C=C\CCCCC[C@H](Nc2c(N3CCC3)c(=O)c2=O)C(=O)N2C[C@H](OC(=O)N3Cc4cccc(F)c4C3)C[C@@H]12 [Compound 193] | < 1000 nM | < 100 nM | – | – |
| [2H]C([2H])([2H])N(C([2H])([2H])[2H])S(=O)(=O)NC(=O)[C@@]12C[C@H]1/C=C\CCCCC[C@H](NC(=O)OC(C)(C)C)C(=O)N1C[C@H](OC(=O)N3Cc4ccccc4C3)C[C@H]1C(=O)N2 [Compound 204] | < 100 nM | < 100 nM | – | – |
| COc1cccc(CN[C@H]2CCCCC/C=C\[C@@H]3C[C@@]3(C(=O)NS(=O)(=O)C3CC3)NC(=O)[C@@H]3C[C@@H](OC(=O)N4Cc5cccc(F)c5C4)CN3C2=O)c1 [Compound 906] | < 100 nM | < 100 nM | – | – |
| CC(C)(C)OC(=O)N[C@H]1CCCCC/C=C\[C@@H]2C[C@@]2(C(=O)O)NC(=O)[C@@H]2C[C@@H](OC(=O)N3Cc4ccc(OCCNC5CC5)cc4C3)CN2C1=O [Compound 131] | < 10000 nM | < 100 nM | – | – |
| CC(C)(C)NC(=O)N[C@H]1CCCCC/C=C\[C@@H]2C[C@@]2(C(=O)O)NC(=O)C2C[C@@H](OC(=O)N3Cc4cccc(Cl)c4C3)CN2C1=O (some centres unmarked) [Compound 177] | < 10000 nM | < 100 nM | – | – |
| CC(C)OC(=O)N[C@H]1CCC(F)(F)CC/C=C\[C@@H]2C[C@@]2(C(=O)NS(=O)(=O)C2CC2)NC(=O)[C@@H]2C[C@@H](OC(=O)N3Cc4ccccc4C3)CN2C1=O [Compound 1012] | < 100 nM | < 100 nM | – | – |
| (1S,4R,6S,14S) tert-butyl 4-Cyclopropanesulfonylaminocarbonyl-2,15-dioxo-3,16-diaza-tricyclo[14.3.0.0^4,6]nonadec-7-ene-14-yl carbamate [Compound 2137] | – | > 10000 nM | – | > 10000 nM |
| CCOC1(S(=O)(=O)NC(=O)[C@@]23C[C@H]2/C=C\CCCCC[C@H](N)C(=O)N2C[C@H](OC(=O)N4Cc5cccc(Cl)c5C4)C[C@H]2C(=O)N3)CC1 [Compound 167] | < 10000 nM | – | < 100 nM | – |
| O=C1N[C@]2(C(=O)NS(=O)(=O)C3CC3)C[C@H]2/C=C\CCCCC[C@H](N(CC2CC2)CC2CC2)C(=O)N2C[C@H](OC(=O)N3Cc4cccc(F)c4C3)C[C@@H]12 [Compound 911] | < 10000 nM | < 1000 nM | – | – |
| O=C(N[C@H]1CCCCC/C=C\[C@@H]2C[C@@]2(C(=O)NS(=O)(=O)NCC(F)(F)F)NC(=O)[C@@H]2C[C@@H](OC(=O)N3Cc4cccc(F)c4C3)CN2C1=O)OC1CCCC1 [Compound 223] | < 1000 nM | < 100 nM | – | – |
| CC(C)(C)OC(=O)N[C@H]1COCCC/C=C\[C@@H]2C[C@@]2(C(=O)O)NC(=O)[C@@H]2C[C@@H](OC(=O)N3Cc4cccc(Cl)c4C3)CN2C1=O [Compound 1024] | < 100 nM | < 100 nM | – | – |

Source: patent US7829665B2 (priority 2005, dated 2010)
